Experimental findings from US20260042762A1 (Kymera Therapeutics, Inc., priority 2018, published 2026) are described below.

Counter-ions that a name gives are not always drawn.

The assay addresses T1, MerTK (Homo sapiens, UniProt Q12866).
T1 construct: endogenous in cells; host or cells: Jurkat cells
T1 sequence (Q12866 21-999): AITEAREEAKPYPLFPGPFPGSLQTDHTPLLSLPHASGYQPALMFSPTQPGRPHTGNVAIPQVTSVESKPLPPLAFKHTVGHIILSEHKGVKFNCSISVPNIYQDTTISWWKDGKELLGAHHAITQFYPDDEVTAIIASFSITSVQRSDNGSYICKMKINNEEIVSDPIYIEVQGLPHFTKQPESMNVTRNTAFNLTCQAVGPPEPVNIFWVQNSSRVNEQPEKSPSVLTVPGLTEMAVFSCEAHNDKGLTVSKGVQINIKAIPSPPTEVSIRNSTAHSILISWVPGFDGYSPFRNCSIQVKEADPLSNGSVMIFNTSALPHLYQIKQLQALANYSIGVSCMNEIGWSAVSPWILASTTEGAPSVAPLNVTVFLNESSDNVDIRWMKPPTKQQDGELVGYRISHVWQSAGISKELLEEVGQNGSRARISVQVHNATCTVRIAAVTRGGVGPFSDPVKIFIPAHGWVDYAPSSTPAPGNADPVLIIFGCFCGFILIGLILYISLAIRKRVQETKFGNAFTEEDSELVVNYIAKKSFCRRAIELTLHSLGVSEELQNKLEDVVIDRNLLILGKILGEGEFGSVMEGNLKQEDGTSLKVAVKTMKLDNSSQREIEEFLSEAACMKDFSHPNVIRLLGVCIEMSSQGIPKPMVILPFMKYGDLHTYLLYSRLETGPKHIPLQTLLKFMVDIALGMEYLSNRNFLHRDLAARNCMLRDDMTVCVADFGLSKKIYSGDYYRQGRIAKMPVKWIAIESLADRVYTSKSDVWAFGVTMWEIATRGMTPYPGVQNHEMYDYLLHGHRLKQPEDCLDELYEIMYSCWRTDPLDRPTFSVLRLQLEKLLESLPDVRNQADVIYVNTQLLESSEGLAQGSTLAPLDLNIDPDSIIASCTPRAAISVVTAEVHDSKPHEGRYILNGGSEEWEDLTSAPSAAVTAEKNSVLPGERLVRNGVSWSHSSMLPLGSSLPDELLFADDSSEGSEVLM
Put plainly: MerTk degradation in Jurkat cells (Western blot). In kind it is cell-based. Conditions: 0.001-1 μM, 4 hour-incubation at 37° C.; for Dmax: Jurkat, 4 h, read-out: Jurkat Max % MerTK Degradation. A digest of the protocol: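 MerTK degradation was read by near-infrared Western blot, normalized to actin, in BCA-quantified lysates of Jurkat cells exposed to 0.001-1 μM compound for 4 h at 37 °C.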
On the technique in general: In western blotting, separated proteins are transferred to a membrane and probed.

Regarding `CCCCNc1ncc2c(C3CCN(CCOCCOCCOCCOCCCc4ccc5c(c4)n(C)c(=O)n5[C@H]4CCC(=O)NC4=O)CC3)cn([C@H]3CC[C@H](O)CC3)c2n1` [I-97, 3-[5-(1-[4-[2-(butylamino)-7-[trans-4-hydroxycyclohexyl]-7H-pyrrolo[2,3-d]pyrimidin-5-y1]piperidin-1-y1]-3,6,9,12-tetraoxapentadecan-15-y1)-3-methyl-2-oxo-2,3-dihydro-1H-1,3-benzodiazol-1-y1]piperidine-2,6-dione; bis(formic acid)], the Dmax was more than 50%. Still for that read-out and setting: to `COC[C@@H](C)Nc1ncc2c(-c3ccc(CN4CCN(CCOCCOCCOCCOCCNc5cccc6c5n(C)c(=O)n6C5CCC(=O)NC5=O)CC4)cc3)cn([C@H]3CC[C@H](O)CC3)c2n1` (stereo partly drawn) [I-5, Trans-3-[4-[15-(4-[[4-(2-[[(2R)-1-methoxypropan-2-yl]amino]-7-[4-hydroxycyclohexyl]-7H-pyrrolo[2,3-d]pyrimidin-5-yl)phenyl]methyl]piperazin-1-yl)-4,7,10,13-tetraoxa-1-azapentadecan-1-yl]-3-methyl-2-oxo-2,3-dihydro-1H-1,3-benzodiazol-1-yl]piperidine-2,6-dione bis(formic acid)] belongs less than 20%; to `CCCCNc1ncc2c(-c3ccc([C@@H](C)N4CCN(CCCOCCCc5ccc6c(c5)n(C)c(=O)n6C5CCC(=O)NC5=O)CC4)cc3)cn([C@H]3CC[C@H](O)CC3)c2n1` (stereo partly drawn) [I-103, 3-[5-[3-(3-[4-[(1R)-1-[4-[2-(butylamino)-7-[trans-4-hydroxycyclohexyl]-7H-pyrrolo[2,3-d]pyrimidin-5-yl]phenyl]ethyl]piperazin-1-yl]propoxy)propyl]-3-methyl-2-oxo-2,3-dihydro-1H-1,3-benzodiazol-1-yl]piperidine-2,6-dione], more than 50%.

As to `C[C@H](CC(F)(F)F)Nc1ncc2c(-c3ccc(CN4CCN(CCCOCCCc5ccc6c(c5)n(C)c(=O)n6C5CCC(=O)NC5=O)CC4)cc3)cn([C@H]3CC[C@H](O)CC3)c2n1` (stereo partly drawn) [I-111], the Dmax was more than 50%. Consider `Cn1c(=O)n(C2CCC(=O)NC2=O)c2ccc(CCCOCCN3CCCC(N4CCN(Cc5ccc(-c6cn([C@H]7CC[C@H](O)CC7)c7nc(NCCC(F)(F)F)ncc67)cc5)CC4)C3)cc21.O=CO` (stereo partly drawn) [I-95, 3-(3-methyl-2-oxo-5-[3-[2-(3-[4-[(4-[7-[trans-4-hydroxycyclohexyl]-2-[(3,3,3-trifluoropropyl)amino]-7H-pyrrolo[2,3-d]pyrimidin-5-yl]phenyl)methyl]piperazin-1-yl]piperidin-1-yl)ethoxy]propyl]-2,3-dihydro-1H-1,3-benzodiazol-1-y1)piperidine-2,6-dione; formic acid], for which the “Jurkat Max % MerTK Degradation” value was “A (maximum MerTK degradation greater than 50%)”. Regarding `Cc1cc(CNCc2ccc(C(=O)N3CCC(C4CCN(Cc5ccc(-c6cn([C@H]7CC[C@H](O)CC7)c7nc(NCCC(F)(F)F)ncc67)cc5)CC4)CC3)cc2)ccc1-c1ccc2nn(CC3CC3)cc2c1` [I-180, trans-4-[5-(4-[[1-(4-[[([4-[2-(Cyclopropylmethyl)indazol-5-yl]-3-methylphenyl]methyl)amino]methyl]benzoyl)-[4,4-bipiperidin]-1-yl]methyl]phenyl)-2-[(3,3,3-trifluoropropyl)amino]pyrrolo[2,3-d]pyrimidin-7-yl]cyclohexan-1-ol hydrochloride], the Dmax was less than 20%. Same read-out and setting: next, `Cn1c(=O)n([C@H]2CCC(=O)NC2=O)c2ccc(CCCOCCOCCNCc3ccc(-c4cn([C@H]5CC[C@H](O)CC5)c5nc(NCCC(F)(F)F)ncc45)cc3)cc21` [I-48, 3-(3-methyl-2-oxo-5-[3-[2-(2-[[(4-[7-[trans-4-hydroxycyclohexyl]-2-[(3,3,3-trifluoropropyl)amino]-7H-pyrrolo[2,3-d]pyrimidin-5-y1]phenyl)methyl]amino]ethoxy)ethoxy]propyl]-2,3-dihydro-1H-1,3-benzodiazol-1-y1)piperidine-2,6-dione]: more than 50%; `CCCCNc1ncc2c(-c3ccc(CNCCOCCOCCCc4ccc5c(c4)n(C)c(=O)n5[C@H]4CCC(=O)NC4=O)cc3)cn([C@H]3CC[C@H](O)CC3)c2n1` [I-45, 3-[5-[3-(2-[2-[([4-[2-(butylamino)-7-[trans-4-hydroxycyclohexy1]-7H-pyrrolo[2,3-d]pyrimidin-5-yl]phenyl]methyl)amino]ethoxy]ethoxy)propyl]-3-methyl-2-oxo-2,3-dihydro-1H-1,3-benzodiazol-1-y1]piperidine-2,6-dione; formic acid]: more than 50%. In the case of `C[C@@H](Nc1ncc2c(-c3ccc(CN4CCN(CCCOCCCc5ccc6c(c5)n(C)c(=O)n6C5CCC(=O)NC5=O)CC4)cc3)cn([C@H]3CC[C@H](O)CC3)c2n1)C(F)F` (stereo partly drawn) [I-215], the Dmax is more than 50%. In the case of `CCCNc1ncc2c(-c3ccc(CN4CCN(CCOCCCOCCCc5ccc6c(c5)n(C)c(=O)n6[C@H]5CCC(=O)NC5=O)CC4)cc3)cn([C@H]3CC[C@H](O)CC3)c2n1` [I-71, 3-[3-methyl-2-oxo-5-[3-(3-[2-[4-([4-[2-(propylamino)-7-[trans-4-hydroxycyclohexyl]-7H-pyrrolo[2,3-d]pyrimidin-5-yl]phenyl]methyl)piperazin-1-yl]ethoxy]propoxy)propy1]-2,3-dihydro-1H-1,3-benzodiazol-1-yl]piperidine-2,6-dione], the Dmax was more than 50%.

Regarding `CCCCNc1ncc2c(-c3ccc(CN4CCN(CCOCCOCCOCCOCCNc5cccc6c5n(C)c(=O)n6C5CCC(=O)NC5=O)CC4)cc3)cn([C@H]3CC[C@H](O)CC3)c2n1` (stereo partly drawn) [I-36, trans-3-(4-[15-[4-([4-[2-(butylamino)-7-[4-hydroxycyclohexyl]-7H-pyrrolo[2,3-d]pyrimidin-5-yl]phenyl]methyl)piperazin-1-yl]-4,7,10,13-tetraoxa-1-azapentadecan-1-yl]-3-methyl-2-oxo-2,3-dihydro-1H-1,3-benzodiazol-1-yl)piperidine-2,6-dione], the Dmax was more than 50%. Still for that read-out and setting: to `Cn1c(=O)n([C@H]2CCC(=O)NC2=O)c2ccc(CCN3CC(OCCN4CCN(Cc5ccc(-c6cn([C@H]7CC[C@H](O)CC7)c7nc(NCCC(F)(F)F)ncc67)cc5)CC4)C3)cc21` [I-128, 3-(3-methyl-2-oxo-5-[2-[3-(2-[4-[(4-[7-[trans-4-hydroxycyclohexyl]-2-[(3,3,3-trifluoropropyl)amino]pyrrolo[2,3-d]pyrimidin-5-yl]phenyl)methyl]piperazin-1-yl]ethoxy)azetidin-1-yl]ethyl]-1,3-benzodiazol-1-y1)piperidine-2,6-dione] belongs 20 to 50%. `Cn1c(=O)n([C@H]2CCC(=O)NC2=O)c2ccc(CCCOCCN3CC(N4CCN(Cc5ccc(-c6cn([C@H]7CC[C@H](O)CC7)c7nc(NCCC(F)(F)F)ncc67)cc5)CC4)C3)cc21` [I-91, 3-(3-methyl-2-oxo-5-[3-[2-(3-[4-[(4-[7-[trans-4-hydroxycyclohexy1]-2-[(3,3,3-trifluoropropyl)amino]-7H-pyrrolo[2,3-d]pyrimidin-5-y1]phenyl)methyl]piperazin-1-yl]azetidin-1-yl)ethoxy]propyl]-2,3-dihydro-1H-1,3-benzodiazol-1-yl)piperidine-2,6-dione; formic acid]: the Dmax is more than 50%.

`C[C@@H](CC(F)(F)F)Nc1ncc2c(-c3ccc(CN4CCN(CCCOCCCc5ccc6c(c5)n(C)c(=O)n6C5CCC(=O)N(C)C5=O)CC4)cc3)cn([C@H]3CC[C@H](O)CC3)c2n1` (stereo partly drawn) [I-225, 1-methyl-3-[3-methyl-2-oxo-5-[3-(3-[4-[(4-[7-[trans-4-hydroxycyclohexy1]-2-[[(2S)-4,4,4-trifluorobutan-2-yl]amino]pyrrolo[2,3-d]pyrimidin-5-yl]phenyl)methyl]piperazin-1-yl]propoxy)propyl]-1,3-benzodiazol-1-yl]piperidine-2,6-dione]: the Dmax was less than 20%. With `Cn1c(=O)n(C2CCC(=O)NC2=O)c2ccc(CCCOCC(F)CN3CCN(Cc4ccc(-c5cn([C@H]6CC[C@H](O)CC6)c6nc(NCCC(F)(F)F)ncc56)cc4)CC3)cc21` (stereo partly drawn) [I-160, 3-[5-[3-(2-fluoro-3-[4-[(4-[7-[trans-4-hydroxycyclohexy1]-2-[(3,3,3-trifluoropropyl)amino]pyrrolo[2,3-d]pyrimidin-5-yl]phenyl)methyl]piperazin-1-yl]propoxy)propyl]-3-methyl-2-oxo-1,3-benzodiazol-1-yl]piperidine-2,6-dione], the Dmax was more than 50%.
